One assay concerns the target 3H-Prazosine binding. Put plainly: 3H-Prazosine binding. The conditions noted are these: rat brain membranes (minus cerebellum and medulla oblongata); 0.2 nM 3H-Prazosine; 30 minutes at room temperature, pH 7.4. The protocol:
3H-Prazosine binding Male Fullinsdorf albino rats weighing between 150-200 g were used. Membranes were prepared by homogenization of the whole brain minus cerebellum and medulla oblongata with a Plytron (10.000 rpm, 30 seconds), in 25 volumes of a cold Tris-HCl 50 mM, EDTA 10 mM, pH 7.1 buffer. The homogenate was centrifuged at 48.000 g for 10 minutes at 4° C. The pellet was resuspended using the Polytron in the same volume of buffer and the homogenate was incubated at 37° C. for 10 minutes. After centrifugation, the pellet was homogenized in the same buffer and frozen at -80° C. for at least 16 hours but not more than 10 days. For the binding assay the homogenate was thawed at 37° C., centrifuged and the pellet was washed three times as above in a Tris-HCl 5 mM, pH 7.4 cold buffer. The final pellet was resuspended in the same buffer and used at a final concentration of […]. 3H-Prazosine binding experiments were performed using a Tris-HCl 50 mM, pH 7.4 buffer. For displacement experiments 0.2 nM of 3H-Prazosine were used and non specific binding was measured using […] of Chlorpromazine. The incubation time was 30 minutes at room temperature and the assay was stopped by filtration on Whatman GF/B glass fiber filters (Unifilter-96, Canberra Packard S. A., Zurich, Switzerland). The filters were washed 5 times with cold buffer. The radioactivity on the filter was counted on a Packard Top-count microplate scintillation counter after addition of […] of microscint 40 (Canberra Packard S. A., Zurich, Switzerland). The effects of compounds were measured using a minimum of 8 concentrations and repeated at least once. The pooled normalized values were analyzed using a non-linear regression calculation program which provide IC50 with their relative upper and lower 95% confidence limits (RS1, BBN, USA).

Assay [1] addresses T1, 3H-Ro 25-6981 binding (NMDA receptor) (Rattus norvegicus, UniProt P35439+Q00960).
T1 construct: NR1 splice forms mixed
Put plainly: 3H-Ro 25-6981 binding. Particulars: rat brain membranes (minus cerebellum and medulla oblongata); 5 nM 3H-Ro 25-6981; 2 hours at 4° C., pH 7.4.

The target in assay [2] is T2, NR1C + NR2B (NMDAR1C-NMDAR2B) (Rattus norvegicus, UniProt P35439+Q00960).
T2 construct: expressed in transfected cells; host or cells: Xenopus laevis oocytes injected with mRNA (1:1 mixture)
In words: Electrophysiology on recombinant NMDA receptors, NR1C + NR2B, Xenopus laevis oocytes. The format is cell-based. Particulars: read-out: Electrophysiology, % block by 0.1 μM, NR1C + NR2B.
Description: (§1) Oocytes of South African frogs (Xenopus laevis) were used for expressing either a combination of the NMDAR1C and NMDAR2A subunits or the NMDAR1C and NMDAR2B subunits. Approximately 3 fmol of a 1:1 mixture of the respective MRNA species were injected into every oocyte. Four to five days later, the ion current through the NMDA receptor channels was measured in voltage clamp experiments (see Methfessel et al., 1986, Pflugers Arch. 407:577 for the methods of oocyte expression and voltage-clamping). The membrane potential was clamped to -80 mV and the receptors were activated by applying a modified Ringer,s solution containing the NMDA-receptor agonists L-asparatate (Asp) and glycine (Gly). Different agonist concentrations were chosen for either subunit combination to account for the different agonist sensitivities of the two types of receptors (70 mM Asp plus 2.5 mM Gly for NMDAR1C-NMDAR2A and 15 mM Asp plus 0.2 mM Gly for NMDAR1C-NMDAR2B). The agonists were applied for 15 s intervals once every 2.5 min by rapid superfusion of the oocyte with agonist containing solution and the amplitude of the agonist-evoked current was measured immediately before the end of each application. After a series of initial control applications, the antagonist to be tested was added to both, the basal Ringer,s and the agonist containing solution. The antagonist concentration applied to oocytes expressing the NR2A subunit was 10 mmol/l, whereas 0.1 mmol/l were applied to the NR2B expressing oocytes. Four to eight oocytes were tested for every compound and NMDA receptor subtype. Oocytes were exposed to the compounds for 5 to 30 min depending on the time needed for reaching an equilibrium block of the NMDA receptor current. For every oocyte the decrease of the current amplitude was expressed as a percentage of the control current measured before application of the compound.

The target of assay [3] is T3, NR1C + NR2A (NMDAR1C-NMDAR2A) (Rattus norvegicus, UniProt Q00959).
T3 construct: expressed in transfected cells; host or cells: Xenopus laevis oocytes injected with mRNA (1:1 mixture)
In words: Electrophysiology on recombinant NMDA receptors, NR1C + NR2A, Xenopus laevis oocytes. Particulars: read-out: Electrophysiology, % block by 10 μM, NR1C + NR2A. The format is cell-based.
Description: as §1

Setting [4] is: 0.1 μM compound, Xenopus laevis oocytes, -80 mV, mean of four to eight oocytes.
The mark [5] stands for this setting: 10 μM compound, Xenopus laevis oocytes, -80 mV, mean of four to eight oocytes.

Structures can show the parent of a compound that is named as a salt. Where two headings read alike, the source gives them in different places.

Broadly, the IC50 is the concentration needed to halve the response being measured. Higher therefore signals weaker potency.

T1 sequence (Q00960 27-1482, other chains not shown): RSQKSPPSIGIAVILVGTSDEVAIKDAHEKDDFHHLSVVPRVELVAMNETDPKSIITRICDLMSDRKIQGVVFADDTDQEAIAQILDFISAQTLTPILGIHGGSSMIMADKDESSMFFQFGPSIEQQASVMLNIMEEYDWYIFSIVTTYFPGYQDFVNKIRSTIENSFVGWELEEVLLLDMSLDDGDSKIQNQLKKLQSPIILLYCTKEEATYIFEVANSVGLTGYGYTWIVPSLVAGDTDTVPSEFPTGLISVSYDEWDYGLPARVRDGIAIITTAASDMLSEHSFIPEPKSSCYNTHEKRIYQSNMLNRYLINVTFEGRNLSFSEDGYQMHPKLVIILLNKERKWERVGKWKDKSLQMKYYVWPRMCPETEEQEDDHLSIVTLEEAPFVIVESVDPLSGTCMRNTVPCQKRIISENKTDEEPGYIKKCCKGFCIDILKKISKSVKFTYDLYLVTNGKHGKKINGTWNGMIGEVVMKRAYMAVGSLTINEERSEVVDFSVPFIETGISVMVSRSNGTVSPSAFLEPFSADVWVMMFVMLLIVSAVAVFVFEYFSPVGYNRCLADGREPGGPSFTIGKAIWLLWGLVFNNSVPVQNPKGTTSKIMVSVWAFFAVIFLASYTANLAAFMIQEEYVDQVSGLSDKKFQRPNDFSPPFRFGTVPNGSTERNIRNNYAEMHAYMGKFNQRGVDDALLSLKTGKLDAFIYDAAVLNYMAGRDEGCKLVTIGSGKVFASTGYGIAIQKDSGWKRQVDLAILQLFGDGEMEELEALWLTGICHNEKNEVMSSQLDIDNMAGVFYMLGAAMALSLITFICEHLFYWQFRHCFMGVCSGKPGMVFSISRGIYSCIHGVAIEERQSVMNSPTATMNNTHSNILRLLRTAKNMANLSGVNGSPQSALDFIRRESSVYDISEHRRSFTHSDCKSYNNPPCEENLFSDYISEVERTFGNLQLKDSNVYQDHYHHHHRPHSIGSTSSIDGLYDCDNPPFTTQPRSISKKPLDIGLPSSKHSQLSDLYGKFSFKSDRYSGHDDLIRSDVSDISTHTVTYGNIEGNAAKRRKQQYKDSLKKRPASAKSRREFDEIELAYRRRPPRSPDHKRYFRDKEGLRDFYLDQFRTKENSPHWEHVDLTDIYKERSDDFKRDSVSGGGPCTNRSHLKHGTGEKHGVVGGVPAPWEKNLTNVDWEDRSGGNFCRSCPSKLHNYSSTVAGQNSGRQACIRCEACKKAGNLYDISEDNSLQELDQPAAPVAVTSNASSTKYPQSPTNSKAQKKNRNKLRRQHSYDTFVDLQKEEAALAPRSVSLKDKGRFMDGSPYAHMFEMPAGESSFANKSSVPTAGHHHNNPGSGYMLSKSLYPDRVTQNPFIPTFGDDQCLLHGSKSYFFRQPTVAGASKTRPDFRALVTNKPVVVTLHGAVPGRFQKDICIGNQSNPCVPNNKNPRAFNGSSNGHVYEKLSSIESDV
T2 sequence (Q00960 27-1482, other chains not shown): as above
T3 sequence (Q00959 23-1464, other chains not shown): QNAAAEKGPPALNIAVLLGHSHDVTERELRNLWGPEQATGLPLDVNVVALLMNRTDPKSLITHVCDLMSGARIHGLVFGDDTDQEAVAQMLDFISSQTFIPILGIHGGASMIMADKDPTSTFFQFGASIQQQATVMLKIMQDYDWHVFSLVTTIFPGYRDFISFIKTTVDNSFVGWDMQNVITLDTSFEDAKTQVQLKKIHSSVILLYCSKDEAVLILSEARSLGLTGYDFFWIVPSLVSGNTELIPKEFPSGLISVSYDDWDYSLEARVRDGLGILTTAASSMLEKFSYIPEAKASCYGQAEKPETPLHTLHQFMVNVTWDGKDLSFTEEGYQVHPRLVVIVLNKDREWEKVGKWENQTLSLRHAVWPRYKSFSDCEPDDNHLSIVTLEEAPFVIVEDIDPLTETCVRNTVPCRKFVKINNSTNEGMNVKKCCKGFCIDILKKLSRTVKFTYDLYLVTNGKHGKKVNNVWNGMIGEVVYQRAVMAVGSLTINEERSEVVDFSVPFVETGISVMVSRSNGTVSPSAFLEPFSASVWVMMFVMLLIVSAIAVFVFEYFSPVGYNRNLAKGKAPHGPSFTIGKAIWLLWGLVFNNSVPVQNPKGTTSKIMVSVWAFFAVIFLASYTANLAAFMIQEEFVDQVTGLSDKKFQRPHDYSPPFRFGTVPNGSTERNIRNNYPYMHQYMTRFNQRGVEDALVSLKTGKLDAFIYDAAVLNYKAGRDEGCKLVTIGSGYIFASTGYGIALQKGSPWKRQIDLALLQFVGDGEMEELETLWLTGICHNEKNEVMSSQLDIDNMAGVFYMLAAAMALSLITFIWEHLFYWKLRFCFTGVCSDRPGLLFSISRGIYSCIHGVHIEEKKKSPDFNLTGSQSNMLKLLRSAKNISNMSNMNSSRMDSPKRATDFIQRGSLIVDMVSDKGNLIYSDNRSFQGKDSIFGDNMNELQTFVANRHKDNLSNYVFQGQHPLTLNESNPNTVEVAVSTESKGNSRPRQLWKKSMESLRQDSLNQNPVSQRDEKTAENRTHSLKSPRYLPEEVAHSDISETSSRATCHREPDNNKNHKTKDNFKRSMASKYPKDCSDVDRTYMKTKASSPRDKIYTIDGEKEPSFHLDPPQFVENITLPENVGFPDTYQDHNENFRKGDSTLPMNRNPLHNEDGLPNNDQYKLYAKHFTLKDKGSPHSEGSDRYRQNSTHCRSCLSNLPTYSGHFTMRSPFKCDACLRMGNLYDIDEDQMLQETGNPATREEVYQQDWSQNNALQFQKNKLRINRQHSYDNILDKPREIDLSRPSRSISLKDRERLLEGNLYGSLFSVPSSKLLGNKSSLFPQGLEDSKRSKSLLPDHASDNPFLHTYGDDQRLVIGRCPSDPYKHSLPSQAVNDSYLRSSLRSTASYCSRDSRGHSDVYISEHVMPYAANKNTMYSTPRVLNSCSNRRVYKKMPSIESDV

Regarding `Cc1ccc(CC2(O)CCN(CC(O)COc3ccc(O)cc3)CC2)cc1` (racemic) [A/1, (RS)-1-[2-Hydroxy-3-(4-hydroxy-phenoxy)-propyl]-4-(4-methyl-benzyl)-piperidin-4-ol hydrochloride], the IC50 on 3H-Prazosine binding is 1500 nM; in assay [1], 15 nM. In assay [2], the inhibition at 0.1 µM is 96%. For the same compound, the inhibition at 10 µM in assay [3] amounted to 29%.

Regarding `Oc1ccc(CC(O)CN2CCC(O)(Cc3ccccc3)CC2)cc1` (racemic) [L/30, (RS)-4-Benzyl-1-[2-hydroxy-3-(4-hydroxy-phenyl)-propyl]-piperidin-4-ol], the values for the IC50 (on 3H-Prazosine binding; in assay [1]) were 7400 nM and 60 nM, respectively.

Take `Cc1ccc(CC2(O)CCN(CC(O)Cc3ccc(O)cc3)CC2)cc1` (racemic) [M/31, (RS)-1-[2-Hydroxy-3-(4-hydroxy-phenyl)-propyl]-4-(4-methyl-benzyl)-piperidin-4-ol]: the IC50 on 3H-Prazosine binding amounted to 9700 nM; in assay [1], 20 nM. In addition, the inhibition at 0.1 µM in assay [2] (setting [4]) was determined as 89%. The inhibition at 10 µM in assay [3] (setting [5]) stood at 10%.

`Oc1ccc(CC(O)CN2CCC(O)(Cc3ccc(Cl)cc3)CC2)cc1` (racemic) [N/32, (RS)-4-(4-Chloro-benzyl)-1-[2-hydroxy-3-(4-hydroxy-phenyl)-propyl]-piperidin-4-ol]: the IC50 is 9200 nM at 3H-Prazosine binding and 40 nM in assay [1]. In addition, the inhibition at 0.1 µM in assay [2] (setting [4]) was determined as 81%. Moreover, the inhibition at 10 µM in assay [3] (setting [5]) turned out to be 19%.

As to `Cc1ccc(CC2(O)CCN(CC(O)Cc3ccc(O)c(F)c3)CC2)cc1` (racemic) [W/94, (RS)-1-[3-(3-Fluoro-4-hydroxy-phenyl)-2-hydroxy-propyl]-4-(4-methyl-benzyl)-piperidin-4-ol hydrochloride], the IC50 came out at 6600 nM on 3H-Prazosine binding and 20 nM in assay [1].

Turning to `Oc1ccc(OC[C@@H](O)CN2CCC(O)(Cc3ccccc3)CC2)cc1` [B/5, (S)-4-Benzyl-1-[2-hydroxy-3-(4-hydroxy-phenoxy)-propyl]-piperidin-4-ol], the values for the IC50 (on 3H-Prazosine binding; in assay [1]) were 4000 nM and 60 nM, respectively.

The compound `Cc1ccc(CC2(O)CCN(CCOc3ccc(O)cc3)CC2)cc1` [C/9, 1-[2-(4-Hydroxy-phenoxy)-ethyl]-4-(4-methyl-benzyl)-piperidin-4-ol] had an IC50 on 3H-Prazosine binding of 3500 nM. Further, the inhibition at 0.1 µM in assay [2] (setting [4]) was 88%. For the same compound, the inhibition at 10 µM in assay [3] (setting [5]) is 31%.

Take `Oc1ccc(OCCN2CCC(O)(Cc3ccc(F)cc3)CC2)cc1` [D/10, 4-(4-Fluoro-benzyl)-1-[2-(4-hydroxy-phenoxy)-ethyl]-piperidin-4-ol]: the IC50 amounted to 3000 nM at 3H-Prazosine binding and 40 nM in assay [1].

On to `Cc1ccc(CC2(O)CCN(CCOc3ccc(NS(C)(=O)=O)cc3)CC2)cc1` [E/11, N-(4-{2-[4-hydroxy-4-(4-methyl-benzyl)-piperidin-1-yl]-ethoxy}-phenyl)-methanesulfonamide hydrochloride], for which the values for the IC50 (at 3H-Prazosine binding; in assay [1]) were 5000 nM and 30 nM, respectively. In addition, the inhibition at 0.1 µM in assay [2] came to 91%. In assay [3], the inhibition at 10 µM came to 27%.

Consider `CS(=O)(=O)Nc1ccc(OCCN2CCC(O)(Cc3ccc(F)cc3)CC2)cc1` [F/12, N-(4-{2-[4-(4-fluoro-benzyl)-4-hydroxy-piperidin-1-yl]-ethoxy}-phenyl)-methanesulfonamide], for which the IC50 was determined as 6000 nM at 3H-Prazosine binding and 60 nM in assay [1].

In the case of `CS(=O)(=O)Nc1ccc(OCCN2CCC(O)(Cc3ccc(Cl)cc3)CC2)cc1` [G/13, N-(4-{2-[4-(4-Chloro-benzyl)-4-hydroxy-piperidin-1-yl]-ethoxy}-phenyl)-methanesulfonamide], the concentration for half-maximal inhibition (IC50) at 3H-Prazosine binding is 9000 nM; in assay [1] it was 30 nM.

As for `CS(=O)(=O)Nc1ccc(OCCCN2CCC(O)(Cc3ccc(F)cc3)CC2)cc1` [H/14, N-(4-{3-[4-(4-Fluoro-benzyl)-4-hydroxy-piperidin-1-yl]-propoxy}-phenyl)-methanesulfonamide], the results for the IC50 (at 3H-Prazosine binding; in assay [1]) were 1800 nM and 40 nM, respectively.

Take `Cc1ccc(CC2(O)CCN(C(C)COc3ccc(O)cc3)CC2)cc1` (stereo not drawn) [I/22, 1-[2-(4-Hydroxy-phenoxy)-1-methyl-ethyl]-4-(4-methyl-benzyl)-piperidin-4-ol]: the IC50 at 3H-Prazosine binding amounted to 2500 nM; in assay [1], 40 nM.

For the compound `O=C(CN1CCC(O)(Cc2ccccc2)CC1)Nc1ccc(O)cc1` [J/23, 2-(4-Benzyl-4-hydroxy-piperidin-1-yl)-N-(4-hydroxy-phenyl)-acetamide], the figures for the IC50 (at 3H-Prazosine binding; in assay [1]) were 20000 nM and 70 nM, respectively.

For `Cc1ccc(CC2(O)CCN(CC(=O)Nc3ccc(O)cc3)CC2)cc1` [K/24, 2-[4-Hydroxy-4-(4-methyl-benzyl)-piperidin-1-yl]-N-(4-hydroxy-phenyl)-acetamide], the IC50 is 30000 nM at 3H-Prazosine binding and 40 nM in assay [1]. Further, the inhibition at 0.1 µM in assay [2] (setting [4]) is 83%. Besides, the inhibition at 10 µM in assay [3] (setting [5]) was 10%.

As for `Cc1ccc(CC2(O)CCN(CCOC(=O)c3ccc(O)cc3)CC2)cc1` [O/34, 4-Hydroxy-benzoic acid 2-[4-hydroxy-4-(4-methyl-benzyl)-piperidin-1-yl]ethylester], the IC50 is 800 nM at 3H-Prazosine binding and 10 nM in assay [1].

Regarding `Cc1ccc(CC2(O)CCN(CCCOC(=O)c3ccc(O)cc3)CC2)cc1` [P/35, 4-Hydroxy-benzoic acid 3-[4-hydroxy-4-(4-methyl-benzyl)-piperidin-1-yl]-propylester], the IC50 at 3H-Prazosine binding came to 260 nM; in assay [1], 3 nM.

Take `O=C(NCCN1CCC(O)(Cc2ccccc2)CC1)c1ccc(O)cc1` [Q/36, N-[2-(4-Benzyl-4-hydroxy-piperidin-1-yl)-ethyl]-4-hydroxy-benzamide]: the IC50 at 3H-Prazosine binding is 5000 nM; in assay [1], 10 nM.

Take `Cc1ccc(CC2(O)CCN(CCNC(=O)c3ccc(O)cc3)CC2)cc1` [R/37, 4-Hydroxy-N-[2-[4-hydroxy-4-(4-methyl-benzyl)-piperidin-1-yl]-ethyl]-benzamide]: the IC50 worked out at 5300 nM at 3H-Prazosine binding and 6 nM in assay [1]. Besides, the inhibition at 0.1 µM in assay [2] (setting [4]) amounted to 42%. Besides, the inhibition at 10 µM in assay [3] (setting [5]) is 8%.

Turning to `O=C(NCCCN1CCC(O)(Cc2ccccc2)CC1)c1ccc(O)cc1` [S/38, N-[3-(4-Benzyl-4-hydroxy-piperidin-1-yl)-propyl]-4-hydroxy-benzamide], the half-maximal inhibitory concentration (IC50) on 3H-Prazosine binding came to 7300 nM; in assay [1], 16 nM.

Regarding `Cc1ccc(CC2(O)CCN(CCCNC(=O)c3ccc(O)cc3)CC2)cc1` [T/39, 4-Hydroxy-N-[3-[4-hydroxy-4-(4-methyl-benzyl)-piperidin-1-yl]-propyl]-benzamide], the IC50 on 3H-Prazosine binding amounted to 2300 nM; in assay [1], 9 nM.

Take `Cc1ccc(CC2(O)CCN(C/C=C/c3ccc(O)cc3)CC2)cc1` [V/41, (E)-1-[3-(4-Hydroxy-phenyl)-allyl]-4-(4-methyl-benzyl)-piperidin-4-ol]: the IC50 at 3H-Prazosine binding was 3000 nM; in assay [1] it was 8 nM.
